Laboratory results: US7524851B2 (Robert Bosch Gesellschaft fur Medizinische Forschung (RBMF), priority 2003, dated 2009)

Tests used:
STAT-3 = assay: Rac1-bound STAT-3 (PAK pull-down, immunoblot); assay type: cell-based, human; conditions: primary T cells, 3 days
Method: FIG. 7. […] Purified CD4^+ T lymphocytes were stimulated with IL-2 and antibodies to CD3 or IL-2 plus antibodies to CD3 and CD28 for 3 days. […] GTP-bound Ras (Ras-GTP) was analyzed using Raf RGD to determine Ras activation. […] Similarly, Ras was obtained using Raf RGD agarose followed by analysis of [^3H]GTP-bound Ras by scintillation counting.
Cell lysates were incubated with 10 μg/ml PAK-1 agarose (Rac assays) or 10 μg/mg Raf RBD agarose (Ras assay) for 60 minutes (Rac assays) or 30 minutes (Ras assays) at 4° C. Agarose beads were collected by centrifugation followed by denaturation, boiling of the samples, and SDS-PAGE analysis.

Rac1 = Rac1 protein expression (Western blot, immunocytochemistry); assay type: cell-based, human
Method: (§1) Western blots: Equal amounts of extract (30 μg) were added to 8 μl of electrophoresis sample buffer (Firma Roth; Karlsruhe, Germany). After boiling, the extracts were loaded on 15% SDS-PAGE gels and electrophoretically separated. Proteins were transferred to nitrocellulose membranes, and detection was performed with the ECL Western blotting analysis system (Amersham). […]
(§2) Immunocytochemical analysis: Immunocytochemistry was performed as described in Atreya et al., supra and Finotto et al., J. Exp. Med. 193:1247-1260 (2001)). […] Cells were rinsed with PBS, and nuclei were counterstained with Hoechst33342 blue for fluorescence (Molecular Probes; Burlingame, Calif., USA). Finally, cells were washed in PBS and analyzed with an Olympus Microscope. Six to ten high-power fields were finally analyzed in all patients per condition, and selected high-power fields were further analyzed by confocal laser microscopy.

MEK = MEK phosphorylation and expression (Western blot, FACS); assay type: cell-based, human; conditions: 3 days
Method: (§3) FACS analysis: Analysis of peripheral blood T cells and lamina propria T lymphocytes by FACS (FACSscan; Becton Dickinson; Berlin, Germany) was performed using FITC-labeled murine antibodies to human CD4 (PharMingen), anti-mouse IgG1 isotype control antibodies (PharMingen), antibodies to bcl-xL and p mitogen-activated protein kinase kinase (pMEK) (Santa Cruz Biotech; Santa Cruz, Calif., USA), and goat anti-mouse Fab-FITC (DAKO). For intracellular staining analysis, T cells were fixed in PBS/4% paraformaldehyde (Merck; Munich, Germany) for 10 minutes at 4° C., washed twice in PBS, permeabilized in PBS/0.1% Triton X-100 (Sigma-Aldrich; Steinheim, Germany), and treated with mouse anti-human bcl-xL or MEK antibodies (2 μg per 5×10^5 cells) for 30 minutes on ice. T cells were washed twice in PBS/0.1% Triton X-100 before incubation with goat anti-mouse Fab-FITC (2 μl per 10^5 cells). Finally, T cells were washed twice in PBS before FACS analysis.
The cells were then washed in PBS, resuspended in 1 ml of T40E10N150 buffer (40 mM Tris-HCl [pH 7.9], 10 mM EDTA [pH 8.0], 150 mM NaCl), put on ice for 5 minutes, and centrifuged for 4 minutes at 4° C. at 1,000 rpm. The cell pellet was then resuspended on ice in 70 μl of buffer (10 mM HEPES [pH 8.0], 400 mM NaCl, 0.1 mM EDTA, 5% glycerol, 1 mM DTT, 1 mM PMSF) and centrifuged at 15,000 rpm for 30 minutes at 4° C. The protein concentrations in supernatants were determined with the Bio-Rad Protein Assay (Bio-Rad; Munich, Germany).
as §1

[1] = system: primary CD4+ T lymphocytes; assay: Mitochondrial membrane potential (JC-1, FACS); conditions: 5 days
bcl-xL = bcl-xL protein expression (Western blot, intracellular FACS); assay type: cell-based, human; conditions: activated T cells
Method: as §3
The cells were then washed in PBS, resuspended in 1 ml of T40E10N150 buffer (40 mM Tris-HCl [pH 7.9], 10 mM EDTA [pH 8.0], 150 mM NaCl), put on ice for 5 minutes, and centrifuged for 4 minutes at 4° C. at 1,000 rpm. […] The protein concentrations in supernatants were determined with the Bio-Rad Protein Assay (Bio-Rad; Munich, Germany). […]

vav = vav protein expression (Western blot, immunocytochemistry); assay type: cell-based, human
Method: as §1, §2

Row | SMILES | Rac1-bound STAT-3 (STAT-3) | expression of Rac1 (Rac1) | MEK phosphorylation (MEK) | ΔΨm in primary T cells [1] | bcl-xL protein expression (bcl-xL) | expression of the guanosine exchange factor vav (vav) | expression levels of MEK (MEK)
1 | Sc1ncnc2nc[nH]c12 [6-MP, 6-mercaptopurine] | Downregulation | not significantly suppressed | suppresses | loss of ΔΨm | strongly suppressed | induced | –
2 | Cn1cnc([N+](=O)[O-])c1Sc1ncnc2nc[nH]c12 [azathioprine, Azathioprine] | reduced | not significantly suppressed | suppressed | loss of ΔΨm | strongly suppressed | induced | nearly unchanged
